Series [1] deals with gram-negative and gram-positive infections. Briefly: in vivo protection, summary statements. Also noted: species or system mice. Here is the method:
(§1) Methods: The method employed in this characterization is as follows: Female white Swiss mice, average weight 20-23 grams, were infected intraperitoneally with 3-20 times the number of organisms calculated to be lethal for 50% of the infected control animals (3-20 LD50 doses). At the time of infection and again 6 hours later, therapy was given by the designated route. Controls of the virulence of the culture and the toxicity of the antibiotic for uninfected mice were included in the tests. Seven days after infection the test was considered complete and the amount of the antibiotic (I) that would be required to protect 50% of the infected and treated animals was calculated by the method of Knudsen and Curtis; J. Amer. Stat. Assoc. Vol. 42: page 282 (1947).
The method employed in these studies is the same as described above with regard to the in vivo characterization of 810A.

Series [2] relates to bacteria. Briefly: bactericidal action and development of resistance.
In series [3] the test system is cephalosporinases and penicillinase. Briefly: resistance to enzymatic degradation / bacterial inactivation, summary statements. Particulars: listed as 7β-(D-5-amino-5-carboxyvaleramido)-3-(α-methyoxy-p-sulfooxycinnamoyloxymethyl)-7.
Series [4] in a line: toxicity in uninfected mice. Particulars: mouse, in vivo. On the procedure: as §1
Series [5] relates to Escherichia coli, Grisein-resistant. The experiment in a line: cross-resistance, disc-plate agar diffusion. Particulars: read-out: Inhibition Zone Diameter. Format: cell-based. (A growth-free zone around the sample is the usual read-out of agar diffusion tests.)
For series [6], the system named is Escherichia coli, Neomycin-resistant. The experiment in a line: cross-resistance, disc-plate agar diffusion. Format: cell-based. Particulars: read-out: Inhibition Zone Diameter.
The test system of series [7] is Sarcina lutea. Briefly: disc-plate agar diffusion, antibacterial spectrum. The series is classed as cell-based. Particulars: Micrococcus luteus; 192 μg/ml; 25 °C; 7 mm = no zone; read-out: Inhibition Zone Diameter.
In series [8] the test system is Escherichia coli, Polymyxin-resistant. Briefly: cross-resistance, disc-plate agar diffusion. Format: cell-based. Particulars: read-out: Inhibition Zone Diameter.
Series [9] relates to Alcaligenes faecalis. Briefly: disc-plate agar diffusion, antibacterial spectrum. The series is classed as cell-based. Particulars: 192 μg/ml, 37 °C, 7 mm = no zone, read-out: Inhibition Zone Diameter.
For series [10], the system named is Escherichia coli, Pleocidin-resistant. The experiment in a line: cross-resistance, disc-plate agar diffusion. The series is classed as cell-based. Particulars: read-out: Inhibition Zone Diameter.
Series [11] concerns Escherichia coli W-MB-60. Briefly: special effects spectrum, disc-plate agar diffusion. The series is classed as cell-based. Particulars: WMB60, 192 μg/ml, read-out: Inhibition Zone Diameter.
Series [12] deals with Pseudomonas aeruginosa. Briefly: disc-plate agar diffusion, antibacterial spectrum. The series is classed as cell-based. Particulars: 192 μg/ml, 25 °C, 7 mm = no zone, read-out: Inhibition Zone Diameter.
For series [13], the system named is Escherichia coli, Viomycin-resistant. The experiment in a line: cross-resistance, disc-plate agar diffusion. The series is classed as cell-based. Particulars: read-out: Inhibition Zone Diameter.
The test system of series [14] is Serratia marcescens. Briefly: disc-plate agar diffusion, antibacterial spectrum. The series is classed as cell-based. Particulars: 192 μg/ml, 25 °C, 7 mm = no zone, read-out: Inhibition Zone Diameter.
The subject of series [15] is Escherichia coli, Chloramphenicol-resistant. The experiment in a line: cross-resistance, disc-plate agar diffusion. Format: cell-based. Particulars: read-out: Inhibition Zone Diameter.
Series [16] deals with Vibrio percolans. Briefly: disc-plate agar diffusion, antibacterial spectrum. Format: cell-based. Particulars: Comamonas terrigena; 192 μg/ml; 27 °C; 7 mm = no zone; read-out: Inhibition Zone Diameter.
For series [17], the system named is Escherichia coli, Streptomycin-resistant. Briefly: cross-resistance, disc-plate agar diffusion. Particulars: read-out: Inhibition Zone Diameter. Format: cell-based.
The test system of series [18] is Escherichia coli, Chlortetracycline-resistant. Briefly: microbe, parasite or virus in culture. Format: cell-based. Particulars: read-out: Inhibition Zone Diameter.
Series [19] relates to Brucella bronchiseptica. The experiment in a line: microbe, parasite or virus in culture. The series is classed as cell-based. Particulars: Bordetella bronchiseptica, read-out: Inhibition Zone Diameter.
Series [20] relates to Staphylococcus aureus (Streptomycin-Streptothricin-resistant). Briefly: disc-plate agar diffusion, antibacterial spectrum. Format: cell-based. Particulars: read-out: Inhibition Zone Diameter.
Series [21] deals with Streptococcus faecalis. Briefly: disc-plate agar diffusion, antibacterial spectrum. The series is classed as cell-based. Particulars: Enterococcus faecalis; 192 μg/ml; 37 °C; 7 mm = no zone; read-out: Inhibition Zone Diameter.
Series [22] has as its system Staphylococcus aureus. Briefly: disc-plate agar diffusion, antibacterial spectrum. Format: cell-based. Particulars: 192 μg/ml, 25 °C, 7 mm = no zone, read-out: Inhibition Zone Diameter.

The structures appear in SMILES notation. “Also recorded” adds a separate entry of the source. Structures can show the parent of a compound that is named as a salt. Where two headings read alike, the source gives them in different places.

Regarding `COC(=Cc1ccc(OS(=O)(=O)O)cc1)C(=O)OCC1=C(C(=O)O)N2C(=O)[C@](NC(=O)CCC[C@@H](N)C(=O)O)(OC)[C@H]2SC1` [Ic, 7β-(D-5-amino-5-carboxyvaleramido)-3-(α-methoxy-p-sulfooxycinnamoyloxymethyl)-7-methoxy-3-cephem-4-carboxylic acid], the “protection against infection, oral” value in series [1] (given orally) is “protects against infections due to Proteus vulgaris”. In addition, in series [1] (mouse, in vivo), the “in vivo activity / protection spectrum” value is “when administered intraperitoneally it is effective against a variety of gram-negative and gram-positive infections”. Moreover, in [2], the bactericidal action entry is given as “bactericidal”. The “resistance to enzymatic degradation / inactivation” value in series [3] was “greater resistance to cephalosporinases than cephalothin; also recorded: more resistant to enzymatic degradation than cephalosporin C”. Also, the toxicity result in [4] is given as “low order of toxicity in mice”.
As for `CO[C@@]1(NC(=O)CCC[C@@H](N)C(=O)O)C(=O)N2C(C(=O)O)=C(COC(N)=O)CS[C@@H]21` [Sodium Salt], the zone of inhibition at 192 µg/mL in series [5] was 16 mm; in series [6], 17 mm; in [7], 9 mm; in series [8] it was 7 mm; in series [9], 7 mm; in [10], 17 mm. Besides, the zone of inhibition at 192 µg/mL in series [11] (0.1 M phosphate buffer pH 5, 25 °C) stood at 15 mm; in series [11] (0.1 M phosphate buffer pH 7, 25 °C), 25 mm; in [12] it was 7 mm; in [13], 30 mm; in [14], 7 mm; in [15], 16 mm. In addition, the zone of inhibition at 192 µg/mL is 38 mm in [16]; 16 mm in series [17]; 23 mm in [18]; 26 mm in series [19]; 10 mm in series [20]; 7 mm in series [21]. Besides, the zone of inhibition at 192 µg/mL in series [22] worked out at 7 mm.

The record behind these values is patent publication US3985742A, “Process for preparing 3-hydroxymethyl cephalosporins” (priority 1975, dated 1976).
